Source: the supplement of paper PMC6045584
± gives the standard deviation of the averaged measurements.

Experiments:
CRIZOTINIB = compound: C[C@@H](Oc1cc(-c2cnn(C3CCNCC3)c2)cnc1N)c1c(Cl)ccc(F)c1Cl [CRIZOTINIB]; test: surviving fraction relative to DMSO-only wells; higher = less growth inhibition; settings: exposure time: 5 days
Procedure, shortened: (§1)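 Continuous five-day exposure to inhibitors at 0.5, 1, 5, 10, 50, 100, 500 and 1000 nM started 24 hours after log-phase tumour cell lines were seeded at 250–500 cells per well in 384-well plates. Luminescence was read after 10 minutes at room temperature. Viability is given as surviving fraction, meaning CellTiter-Glo luminescence normalised to the median of DMSO-only wells.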

OLAPARIB = compound: O=C(c1cc(Cc2n[nH]c(=O)c3ccccc23)ccc1F)N1CCN(C(=O)C2CC2)CC1 [OLAPARIB]; test: as above; settings: exposure time: 5 days
Procedure, shortened: as §1

Test System	surviving fraction (CRIZOTINIB; 0.5 nM)	surviving fraction (CRIZOTINIB; 1 nM)	surviving fraction (CRIZOTINIB; 5 nM)	surviving fraction (CRIZOTINIB; 10 nM)	surviving fraction (CRIZOTINIB; 100 nM)	surviving fraction (CRIZOTINIB; 500 nM)	surviving fraction (CRIZOTINIB; 1000 nM)	surviving fraction (OLAPARIB; 0.5 nM)	surviving fraction (OLAPARIB; 1 nM)	surviving fraction (OLAPARIB; 5 nM)	surviving fraction (OLAPARIB; 10 nM)	surviving fraction (OLAPARIB; 50 nM)	surviving fraction (OLAPARIB; 100 nM)	surviving fraction (OLAPARIB; 500 nM)	surviving fraction (OLAPARIB; 1000 nM)	surviving fraction (CRIZOTINIB; 50 nM)
SG32 HEADNECK	1.09 ± 0.096	1.05 ± 0.096	1.21 ± 0.066	0.936 ± 0.088	1.01 ± 0.12	0.541 ± 0.036	0.352 ± 0.016	1.23 ± 0.41	1.43 ± 0.2	1.23 ± 0.4	1.24 ± 0.15	1.03 ± 0.054	1.05 ± 0.22	0.77 ± 0.042	0.795 ± 0.081	–
SG43 HEADNECK	1.28 ± 0.25	1.06 ± 0.15	1.02 ± 0.062	0.947 ± 0.31	0.756 ± 0.094	0.586 ± 0.027	0.271 ± 0.03	1.18 ± 0.24	0.979 ± 0.16	0.835 ± 0.043	0.882 ± 0.095	1.19 ± 0.025	1.01 ± 0.059	0.982 ± 0.11	0.935 ± 0.042	0.87 ± 0.073
SIHA CERVIX	1.08 ± 0.044	1.06 ± 0.079	1.12 ± 0.053	1.14 ± 0.061	1.09 ± 0.059	0.9 ± 0.028	0.662 ± 0.014	0.988 ± 0.022	1.07 ± 0.13	1.02 ± 0.073	1.03 ± 0.044	0.967 ± 0.053	1.04 ± 0.061	0.91 ± 0.067	0.886 ± 0.061	1.06 ± 0.046
SJSA1 BONE	1.72 ± 0.049	1.69 ± 0.11	1.65 ± 0.11	1.719 ± 0.008	1.57 ± 0.021	1.62 ± 0.037	1.06 ± 0.11	1 ± 0.025	1.01 ± 0.045	1.03 ± 0.061	1.02 ± 0.066	1.01 ± 0.083	0.963 ± 0.024	0.931 ± 0.051	0.876 ± 0.039	0.796 ± 0.079
SKBR3 BREAST	1.12 ± 0.084	1.1 ± 0.046	1.09 ± 0.03	1.14 ± 0.25	1.03 ± 0.046	1 ± 0.12	–	1.02 ± 0.1	1.05 ± 0.15	0.939 ± 0.12	1 ± 0.21	0.922 ± 0.14	0.935 ± 0.093	0.79 ± 0.13	0.813 ± 0.072	–
SNU475 LIVER	1.03 ± 0.029	1.08 ± 0.012	1.08 ± 0.062	1.1 ± 0.027	1.02 ± 0.03	0.948 ± 0.052	0.809 ± 0.024	1 ± 0.079	0.957 ± 0.032	1 ± 0.039	0.994 ± 0.07	0.893 ± 0.059	0.8737 ± 0.0067	0.918 ± 0.013	0.838 ± 0.016	1.01 ± 0.016
SUM44 BREAST	1.28 ± 0.41	1.26 ± 0.39	–	1.25 ± 0.42	1.36 ± 0.47	1.25 ± 0.46	1.17 ± 0.43	0.903 ± 0.012	0.911 ± 0.059	0.924 ± 0.083	0.909 ± 0.071	0.97 ± 0.068	0.958 ± 0.063	0.894 ± 0.066	0.861 ± 0.022	1.33 ± 0.42
SUM149 BREAST	1.08 ± 0.024	1.05 ± 0.075	–	0.96 ± 0.033	–	0.817 ± 0.07	0.51 ± 0.072	0.951 ± 0.21	0.911 ± 0.082	0.927 ± 0.11	0.84 ± 0.01	0.722 ± 0.054	0.624 ± 0.059	0.511 ± 0.084	0.336 ± 0.051	1.01 ± 0.13
SUM149.B1*.S BREAST	1.12 ± 0.043	1.19 ± 0.041	1.15 ± 0.052	1.14 ± 0.067	1.18 ± 0.059	1.11 ± 0.029	1.03 ± 0.047	1.092 ± 0.0038	1.09 ± 0.094	1.08 ± 0.031	1.05 ± 0.022	1.03 ± 0.015	0.962 ± 0.035	1.04 ± 0.011	0.911 ± 0.04	1.13 ± 0.058
SUM159 BREAST	1.11 ± 0.03	1.12 ± 0.056	1.12 ± 0.039	1.11 ± 0.022	1.103 ± 0.004	1.11 ± 0.013	–	1.12 ± 0.075	1.05 ± 0.066	1.084 ± 0.01	1.06 ± 0.016	1.05 ± 0.051	0.948 ± 0.24	1.02 ± 0.079	0.993 ± 0.091	1.09 ± 0.011
SYO1 SYNOVIAL	0.967 ± 0.015	1.03 ± 0.029	0.953 ± 0.094	1 ± 0.028	0.891 ± 0.018	0.399 ± 0.03	0.169 ± 0.008	0.992 ± 0.055	0.95 ± 0.053	0.924 ± 0.045	0.881 ± 0.06	0.724 ± 0.025	0.6731 ± 0.0055	0.564 ± 0.044	0.429 ± 0.027	0.978 ± 0.042
T47D BREAST	1.07 ± 0.024	1.08 ± 0.079	1.1 ± 0.043	1.08 ± 0.03	1.099 ± 0.0093	1.03 ± 0.038	0.93 ± 0.041	1.01 ± 0.04	1 ± 0.052	0.986 ± 0.011	0.982 ± 0.027	0.997 ± 0.061	0.9606 ± 0.0086	0.971 ± 0.05	0.864 ± 0.023	1.07 ± 0.045
U2OS BONE	1.02 ± 0.026	1.05 ± 0.033	1.03 ± 0.042	1.05 ± 0.029	1.05 ± 0.013	0.539 ± 0.023	0.459 ± 0.033	1.08 ± 0.045	1.05 ± 0.069	1.06 ± 0.044	1.07 ± 0.04	1.05 ± 0.055	1.01 ± 0.046	0.945 ± 0.018	0.877 ± 0.032	–
VCAP PROSTATE	1.09 ± 0.13	0.987 ± 0.1	1.13 ± 0.2	1.09 ± 0.02	–	0.504 ± 0.013	0.36 ± 0.04	1.17 ± 0.067	1.1 ± 0.074	1.17 ± 0.089	1.04 ± 0.13	1.08 ± 0.09	1.09 ± 0.12	1.03 ± 0.089	0.922 ± 0.074	1.02 ± 0.15
VP229 BREAST	–	1.23 ± 0.082	1.06 ± 0.018	1.23 ± 0.059	1.15 ± 0.14	1.03 ± 0.15	0.686 ± 0.14	1.07 ± 0.11	1.08 ± 0.13	1.01 ± 0.021	1.12 ± 0.19	0.886 ± 0.071	0.788 ± 0.068	0.879 ± 0.12	0.821 ± 0.046	1.14 ± 0.048
YAMATO SYNOVIAL	1.13 ± 0.056	1.1 ± 0.15	1.2 ± 0.14	1.1 ± 0.1	0.324 ± 0.031	0.221 ± 0.021	0.269 ± 0.021	1.38 ± 0.12	1.4 ± 0.08	1.49 ± 0.062	1.37 ± 0.11	0.894 ± 0.084	0.871 ± 0.092	0.819 ± 0.02	0.738 ± 0.044	0.563 ± 0.036
ZR751 BREAST	–	1.07 ± 0.14	0.926 ± 0.024	–	–	0.818 ± 0.095	0.747 ± 0.07	1.11 ± 0.17	1.08 ± 0.13	1.08 ± 0.35	1.01 ± 0.1	1.1 ± 0.023	1.11 ± 0.086	1.14 ± 0.089	1.02 ± 0.14	1.07 ± 0.1
